Values after ≈ are worked out from the molar mass of the structure shown. Starred links: 1 amine or outer side, 2 acyl side, 3 side chain; linkers in the order of their positions; H or OH if unused. Positions of bridges follow the written chain, without caps; N, C: chain ends. Non-standard residues stand in square brackets, D forms with d. Residues, ends and D or L forms follow the SMILES beside them. X4 = CC(C)CCC=CCCC[C@H](CC(=O)[*:1])O[*:2]; X6 = CC(C)CCCCC=CC[C@H](CC(=O)[*:1])O[*:2]; X5 = CC(C)CCCCCCC[C@H](CC(=O)[*:1])O[*:2]; X3 = CC(C)CCCCC[C@H](CC(=O)[*:1])O[*:2]; X7 = CCCCCCC=CC[C@H](CC(=O)[*:1])O[*:2]; X2 = CCCCCCC[C@H](CC(=O)[*:1])O[*:2]; Val(3-OH) = CC(C)(O)[C@H](N)C(=O)O; X1 = C/C=C(/N[*:1])C(=O)[*:2]; Dab = NCC[C@H](N)C(=O)O; Dap = NC[C@H](N)C(=O)O
What was measured:
K. pneumoniae LMG20218 = test: MIC, broth micro-dilution, primary panel; format: cell-based, Klebsiella pneumoniae; conditions: for MIC: Klebsiella pneumoniae, LMG20218, ESBL; for MIC K. pneumoniae LMG20218: ESBL
Experimental: (§1) Isopedopeptin E (5): off-white solid; [α] D20 –36° (c 0.3 in methanol); UV (MeOH) λ max (log10 ε) 240 (3.8); 1H NMR (DMSO-d 6, 600 MHz), see Table S5; 13C NMR (DMSO-d 6, 150 MHz), see Table […]
(§2) Isopedopeptin F (6): off-white solid; [α] D20 –32° (c 0.05 in methanol); UV (MeOH) λ max (log10 ε) 240 (3.8); 1H NMR (DMSO-d 6, 600 MHz), see Table S6; 13C NMR (DMSO-d 6, 150 MHz), see Table […]
(§3) Isopedopeptin G (7): off-white solid; [α] D20 –49° (c 0.1 in methanol); UV (MeOH) λ max (log10 ε) 240 (4.0); 1H NMR (DMSO-d 6, 600 MHz), see Table S7; 13C NMR (DMSO-d 6, 150 MHz), see Table […]
(§4) Isopedopeptin H (8): off-white solid; [α] D20 –56° (c 0.2 in methanol); UV (MeOH) λ max (log10 ε) 240 (4.0); 1H NMR (DMSO-d 6, 600 MHz), see Table S8; 13C NMR (DMSO-d 6, 150 MHz), see Table […]
(§5) Minimal Inhibitory Concentration (MIC) against the primary panel of microorganisms.
(§6) The MIC for compounds 1–8 was measured by means of a broth micro-dilution method in 96-wells microtiter plates with the addition of E. coli LMG15862, LMG1041 T, E. cloacaeA. baumannii […]
(§7) H-29 and A. fumigatus J7, as test organisms. The test media were AM3 Broth (BD Difco Ltd) mixed with phosphate buffered saline (PBS, Amresco LLC, Solon, USA) in 1:4 ratio (E. coli, A. baumannii, E. cloacae, K. pneumoniae and P. aeruginosa), AM3 Broth mixed with PBS in 1:1 ratio (S. aureus), ME (A. fumigatus) and ISP2 (C. albicans). Prior to MIC determination, the cell concentration of tested bacterial/fungal pathogens was adjusted to ≅ 4 × 10^5 CFU/mL (acceptable range 2 – 6 × 10^5 CFU/mL). Cell concentration was confirmed by colony counting after diluting and plating the respective bacterial pathogen on VPA plates [VPA, 10 g Vegetable Peptone Broth (Oxoid Ltd., Basingstoke,UK), 15 g Bacto Agar (Difco Ltd, Tyrone) in 1 L deionised water] directly after each of MIC-tests. The cells of C. albicans were plated on ISP2 agar plates [ISP2, 15 g Bacto Agar (Difco Ltd) in 1 L deionised water] and respectively spores of A. fumigatus were plated on MEA plates.
(§8) Plates were, subsequently, incubated at 37 °C in the dark, and viable colonies counted after 16 to 24 h.
(§9) To estimate MIC values (concentration range between 0.05 and 50 µg/mL), solutions of the tested compounds (100, 10 and 1 and if needed 0.1 µg/mL in MeOH) were dispensed into wells of microtiter plate(s) and the solvent was evaporated in a fume-hood. Subsequently, suspensions of pathogen cells in the appropriate medium were dispensed to the wells of microtiter plates and the growth of pathogens were observed after 16 to 20 h of incubation at 37 °C in the dark. Positive controls were the respective pathogen cells suspended in untreated sterile media without addition of compounds(s) and negative controls were the media only. MIC values were defined as the lowest concentration of each compound with no visible growth of pathogen. All MIC tests were performed in triplicate and […]
(§10) MIC determination for compound 2 against an extended panel of bacterial strains.
(§11) Compound 2 was evaluated against a panel of Gram-negative bacteria (Hughes strain collection), including: A. baumannii ATCC 19606, wild-type; BM4454, multidrug-resistant clinical isolate; BM4652, efflux-defective derivative of BM4454; CH9622, colistin-resistant clinical isolate; E. coli ATCC 25922, wild-type; CH3130, efflux-defective ΔtolC mutant isogenic to ATCC 25922; D22, a drug-hypersensitive lpxC mutant of E. coli; CH3491, multidrug-resistant clinical isolate; CH9623 and CH9624, colistin-resistant clinical isolates carrying mcr-1; K. pneumoniae ATCC 13833, wild-type; […]
(§12) clinical isolate; CH9625 and CH9626, colistin-resistant clinical isolates; P. aeruginosa PAO1, wild-type; PAO750, efflux-defective mutant isogenic to PAO1. The in vitro antimicrobial activity of each compound was determined by measuring the MIC value using the broth micro-dilution technique in cation-adjusted Mueller-Hinton II broth (Becton-Dickinson, 212322) according to EUCAST and CLSI guidelines. Each compound prepared in MHII medium was dispensed into a 96-well round- […]

P. aeruginosa LMG6395T = test: MIC, broth micro-dilution, primary panel; format: cell-based, Pseudomonas aeruginosa; conditions: WT; for MIC: Pseudomonas aeruginosa, LMG6395T
Experimental: as §1, §2, §3, §4, §5, §6, §7, §8, §9, §10, §11, §12

| SMILES | MIC (K. pneumoniae LMG20218) [mg/L] | MIC (P. aeruginosa LMG6395T) [mg/L] | MIC K. pneumoniae LMG20218 (K. pneumoniae LMG20218) [mg/L] | MIC P. aeruginosa LMG6395T (P. aeruginosa LMG6395T) [mg/L] |
| --- | --- | --- | --- | --- |
| C/C=C1/NC(=O)[C@H](CCN)NC(=O)[C@H](CC(C)C)NC(=O)[C@H](CN)NC(=O)C[C@@H](CCCCCC(C)C)OC(=O)[C@H](CC(=O)O)NC(=O)[C@H](C(C)C)NC(=O)[C@@H](Cc2ccccc2)NC(=O)[C@H](CN)NC(=O)[C@H]([C@@H](C)O)NC1=O [Compound 5, Isopedopeptin E] ([Dap]L[Dab][X1]T[Dap][dF]VD; linker N-C via X3) | 32 (≈ 28.7 µM) | 32 (≈ 28.7 µM) |  |  |
| C/C=C1/NC(=O)[C@H](CCN)NC(=O)[C@H](CC(C)C)NC(=O)[C@H](CN)NC(=O)C[C@@H](CCCCCCC)OC(=O)[C@H](CC(=O)O)NC(=O)[C@H](C(C)C)NC(=O)[C@@H](Cc2ccccc2)NC(=O)[C@H](CN)NC(=O)[C@H]([C@@H](C)O)NC1=O [Compound 4, isopedopeptin D] ([Dap]L[Dab][X1]T[Dap][dF]VD; linker N-C via X2) | > 32 | > 32 |  |  |
| C/C=C1/NC(=O)[C@H](CCN)NC(=O)[C@H](CC(C)C)NC(=O)[C@H](CN)NC(=O)C[C@@H](CC=CCCCCC(C)C)OC(=O)[C@H](CC(=O)O)NC(=O)[C@H](C(C)C)NC(=O)[C@@H](Cc2ccccc2)NC(=O)[C@H](CN)NC(=O)[C@H]([C@@H](C)O)NC1=O [Compound 8, Isopedopeptin H] ([Dap]L[Dab][X1]T[Dap][dF]VD; linker N-C via X6) | 16 (≈ 14 µM) | 16 (≈ 14 µM) |  |  |
| C/C=C1/NC(=O)[C@H](CCN)NC(=O)[C@H](CC(C)C)NC(=O)[C@H](CN)NC(=O)C[C@@H](CCCCCCC)OC(=O)[C@H](CC(=O)O)NC(=O)[C@H](C(C)(C)O)NC(=O)[C@@H](Cc2ccccc2)NC(=O)[C@H](CN)NC(=O)[C@H]([C@@H](C)O)NC1=O [Compound 2, isopedopeptin B] ([Dap]L[Dab][X1]T[Dap][dF][Val(3-OH)]D; linker N-C via X2) | 8 to 16 (≈ 7.16 to 14.3 µM) | 8 to 16 (≈ 7.16 to 14.3 µM) | 16 (≈ 14.3 µM) | 16 (≈ 14.3 µM) |
| C/C=C1/NC(=O)[C@H](CCN)NC(=O)[C@H](CC(C)C)NC(=O)[C@H](CN)NC(=O)C[C@@H](CC=CCCCCCC)OC(=O)[C@H](CC(=O)O)NC(=O)[C@H](C(C)(C)O)NC(=O)[C@@H](Cc2ccccc2)NC(=O)[C@H](CN)NC(=O)[C@H]([C@@H](C)O)NC1=O [Compound 3, isopedopeptin C] ([Dap]L[Dab][X1]T[Dap][dF][Val(3-OH)]D; linker N-C via X7) | 32 (≈ 28 µM) | 32 (≈ 28 µM) |  |  |
| C/C=C1/NC(=O)[C@H](CCN)NC(=O)[C@H](CC(C)C)NC(=O)[C@H](CN)NC(=O)C[C@@H](CCCC=CCCC(C)C)OC(=O)[C@H](CC(=O)O)NC(=O)[C@H](C(C)C)NC(=O)[C@@H](Cc2ccccc2)NC(=O)[C@H](CN)NC(=O)[C@H]([C@@H](C)O)NC1=O [Compound 7, Isopedopeptin G] ([Dap]L[Dab][X1]T[Dap][dF]VD; linker N-C via X4) | 8 to 16 (≈ 7.01 to 14 µM) | 8 to 16 (≈ 7.01 to 14 µM) | 16 (≈ 14 µM) | 8 (≈ 7.01 µM) |
| C/C=C1/NC(=O)[C@H](CCN)NC(=O)[C@H](CC(C)C)NC(=O)[C@H](CN)NC(=O)C[C@@H](CCCCCCCC(C)C)OC(=O)[C@H](CC(=O)O)NC(=O)[C@H](C(C)(C)O)NC(=O)[C@@H](Cc2ccccc2)NC(=O)[C@H](CN)NC(=O)[C@H]([C@@H](C)O)NC1=O [Compound 6, Isopedopeptin F] ([Dap]L[Dab][X1]T[Dap][dF][Val(3-OH)]D; linker N-C via X5) | 32 (≈ 27.6 µM) | 32 (≈ 27.6 µM) |  |  |
| C/C=C1/NC(=O)[C@H](CCN)NC(=O)[C@H](CC(C)C)NC(=O)[C@H](CN)NC(=O)C[C@@H](CCCCCC(C)C)OC(=O)[C@H](CC(=O)O)NC(=O)[C@H](C(C)(C)O)NC(=O)[C@@H](Cc2ccccc2)NC(=O)[C@H](CN)NC(=O)[C@H]([C@@H](C)O)NC1=O [Compound 1, cyclo(3-hydroxy-9-methyldecanoyl-DAPA1-Leu-DABA-ABA-Thr-DAPA2-Phe-OHVal-Asp)] ([Dap]L[Dab][X1]T[Dap][dF][Val(3-OH)]D; linker N-C via X3) | 8 to 16 (≈ 7.07 to 14.1 µM) | 8 to 16 (≈ 7.07 to 14.1 µM) | 8 (≈ 7.07 µM) | 16 (≈ 14.1 µM) |

Reference: paper PMC7684578, “Isopedopeptins A–H: Cationic Cyclic Lipodepsipeptides from Pedobacter cryoconitis UP508 Targeting WHO Top-Priority Carbapenem-Resistant Bacteria” (ACS Chemical Biology, 2020)
